We go through 27 molecules from patent US8354414B2, “Substituted bicyclic pyrimidines” (Cephalon, Inc, priority 2006, dated 2013).

Each structure is given as a SMILES string. Where a name gives a salt, the structure may show the parent alone. A value given as a limit tells only on which side of the number the result lay.

Data set [1] addresses T1, His6-GSK-3β (Homo sapiens, UniProt P49841).
T1 construct: made in house; host or cells: Sf21 insect cells (baculovirus)
The data set is described as follows: Inhibition of His6-GSK-3β kinase activity (ELISA-based format, time-resolved fluorescence readout). The class given is biochemical. As to conditions: class symbols; read-out: GSK3β IC50. The method, boiled down: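 Plate-bound recombinant GST-Rb substrate was phosphorylated for 30 min at 37° C by baculovirus-expressed His6-GSK-3β (200 ng/ml) at 20 μM ATP, 10 mM MgCl2, 2.5% DMSO. Europium time-resolved fluorescence of anti-phospho-Ser780 Rb signal gave inhibition, fitted to IC50.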

In data set [2] the target is T2, CDK5/GST-p25 (Homo sapiens, UniProt Q00535).
T2 construct: The final construct, encoding for full-length human CDK5; made in house; host or cells: Sf21 insect cells (baculovirus co-infection)
The data set can be described thus: Inhibition of CDK5/GST-p25 kinase activity (ELISA with time-resolved fluorescence readout). The class given is biochemical. The method, boiled down: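 The substrate, GST-Rb(773-928), was immobilised on plates and phosphorylated for 20 min at 37 °C by 2 ng/ml CDK5/GST-p25 in HEPES pH 7.2 with 10 µM ATP and 10 mM MgCl2. Both proteins were human and co-expressed in insect cells. Ser-780 phosphorylation was read by europium time-resolved fluorescence and converted to IC50.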

T2 sequence (Q00535 whole entry): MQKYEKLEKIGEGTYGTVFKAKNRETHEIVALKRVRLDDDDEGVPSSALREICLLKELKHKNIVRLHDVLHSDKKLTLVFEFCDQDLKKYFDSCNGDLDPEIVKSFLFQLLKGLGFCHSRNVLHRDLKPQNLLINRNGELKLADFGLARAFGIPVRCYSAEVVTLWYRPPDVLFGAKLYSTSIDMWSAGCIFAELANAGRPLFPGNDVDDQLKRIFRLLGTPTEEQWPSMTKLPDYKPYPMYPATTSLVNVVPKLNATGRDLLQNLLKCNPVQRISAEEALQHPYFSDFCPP
T2 sequence (Q15078 108-307 partner limits assumed): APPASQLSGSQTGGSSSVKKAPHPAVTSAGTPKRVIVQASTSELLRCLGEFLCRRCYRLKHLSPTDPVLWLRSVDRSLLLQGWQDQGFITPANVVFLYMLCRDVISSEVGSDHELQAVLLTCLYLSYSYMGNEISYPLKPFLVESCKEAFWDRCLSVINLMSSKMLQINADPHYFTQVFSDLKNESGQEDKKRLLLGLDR
T1 sequence (P49841 2-419): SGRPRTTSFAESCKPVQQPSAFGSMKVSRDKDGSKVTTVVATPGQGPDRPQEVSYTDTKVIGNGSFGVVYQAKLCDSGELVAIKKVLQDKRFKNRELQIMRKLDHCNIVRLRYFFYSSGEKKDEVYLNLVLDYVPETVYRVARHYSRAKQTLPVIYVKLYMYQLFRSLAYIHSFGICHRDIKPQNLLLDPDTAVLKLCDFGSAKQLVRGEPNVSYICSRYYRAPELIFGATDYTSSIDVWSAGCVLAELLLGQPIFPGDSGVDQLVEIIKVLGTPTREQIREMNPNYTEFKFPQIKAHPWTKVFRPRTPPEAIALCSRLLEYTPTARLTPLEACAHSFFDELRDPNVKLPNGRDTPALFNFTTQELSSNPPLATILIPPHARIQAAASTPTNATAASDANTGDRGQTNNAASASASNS

`COC[C@H]1C[C@@H](n2cnc3c(C4C(=O)Nc5ccc(C#N)cc54)ncnc32)[C@H](O)[C@@H]1O` (stereo partly drawn) [Example 29, 3-[9-((1R,2S,3R,4R)-2,3-Dihydroxy-4-methoxymethyl-cyclopentyl)-9H-purin-6-yl]-2-oxo-2,3-dihydro-1H-indole-5-carbonitrile]: the melting point is 230 to 236 °C (dec.).
In turn, `O=C1Nc2ccc(C(F)(F)F)cc2C1c1nc(NCCc2cccnc2)nc2nn(C3CCCC3)cc12` (stereo not drawn) [Example 160, 3-[2-cyclopentyl-6-(2-pyridin-3-yl-ethylamino)-2H-pyrazolo[3,4-d]pyrimidin-4-yl]-5-trifluoromethyl-1,3-dihydro-indol-2-one] came in with a melting point of 278 to 280 °C. The IC50 in data set [1] is less than 300 nM. Besides, in data set [2] (class symbols), the IC50 is greater than 10000 nM.
For `O=C1Nc2ccc(C(F)(F)F)cc2C1c1ncnc2nn(C3CCCC3)cc12` (stereo not drawn) [Example 34, 3-(2-Cyclopentyl-2H-pyrazolo [3,4-d]pyrimidin-4-yl)-5-trifluoromethyl-1,3-dihydro-indol-2-one] the same measures were 292 to 293 °C, less than 300 nM and less than 300 nM.
For `CC(C)CNc1nc(C2C(=O)Nc3ccc(Cl)cc32)c2cn(C3CCCC3)nc2n1` (stereo not drawn) [Example 280, 5-Chloro-3-(2-cyclopentyl-6-isobutylamino-2H-pyrazolo[3,4-d]pyrimidin-4-yl)-1,3-dihydro-indol-2-one] the same measures were 282 to 286 °C, less than 300 nM and greater than 10000 nM.
Take `CCCn1cc2c(C3C(=O)Nc4ccc(Cl)cc43)ncnc2n1` (stereo not drawn) [Example 98, 5-Chloro-3-(2-propyl-2H-pyrazolo[3,4-d]pyrimidin-4-yl)-1,3-dihydro-indol-2-one]: the melting point is 302 to 306 °C. Besides, the IC50 in data set [1] was less than 300 nM. Besides, the IC50 in data set [2] (class symbols) was less than 300 nM.
The molecule `CNCCCNc1nc(C2C(=O)Nc3ccc(C(F)(F)F)cc32)c2cn(C3CCCC3)nc2n1` (stereo not drawn) (as salt: hydrochloride) [Example 253, 3-[2-Cyclopentyl-6-(3-methylamino-propylamino)-2H-pyrazolo [3,4-d]pyrimidin-4-yl]-5-trifluoromethyl-1,3-dihydro-indol-2-one hydrochloride salt] had a melting point of 260 to 262 °C.
Same read-out and setting: the result for `CCCCCn1cc2c(C3C(=O)Nc4ccc(C(F)(F)F)cc43)nc(Cl)nc2n1` (stereo not drawn) reads 267 °C (dec.); that for `COCCn1cc2c(C3C(=O)Nc4ccc(Br)cc43)nc(NCCC3CCNCC3)nc2n1` (stereo not drawn) (as salt: hydrochloride) [Example 227, 5-Bromo-3-[2-(2-methoxy-ethyl)-6-(2-piperidin-4-yl-ethylamino)-2H-pyrazolo[3,4-d]pyrimidin-4-yl]-1,3-dihydro-indol-2-one], 248 to 251 °C.
Still for that read-out and setting: the result for `CCCn1cc2c(C3C(=O)Nc4ccc(C#N)cc43)nc(Cl)nc2n1` (stereo not drawn) [Example 183, 3-(6-Chloro-2-propyl-2H-pyrazolo [3,4-d]pyrimidin-4-yl)-2-oxo-2,3-dihydro-1H-indole-5-carbonitrile] reads greater than 300 °C; that for `CCCn1cc2c(C3(F)C(=O)Nc4ccc(Br)cc43)ncnc2n1` (stereo not drawn) [Example 383, 5-Bromo-3-fluoro-3-(2-propyl-2H-pyrazolo[3,4-d]pyrimidin-4-yl)-1,3-dihydroindol-2-one], 184 to 186 °C; that for `CN(C)CCNc1nc(C2C(=O)Nc3ccc(Br)cc32)c2cn(C3CCCC3)nc2n1` (stereo not drawn) (as salt: TFA) [Example 370, 5-Bromo-3-[2-cyclopentyl-6-(2-dimethylamino-ethylamino)-2H-pyrazolo [3,4-d]pyrimidin-4-yl]-1,3-dihydro-indol-2-one], 190 to 192 °C.
Same read-out and setting: the result for `Cn1cc2c(C3C(=O)Nc4ccc(Br)cc43)nc(Cl)nc2n1` (stereo not drawn) [Example 300, 5-Bromo-3-(6-chloro-2-methyl-2H-pyrazolo[3,4-d]pyrimidin-4-yl)-1,3-dihydro-indol-2-one] reads greater than 300 °C.
Molecule `CCCn1cc2c(C3C(=O)Nc4ccc(Br)cc43)nc(NCCCNC)nc2n1` (stereo not drawn) (as salt: hydrochloride) [Example 201, 5-Bromo-3-[6-(3-methylamino-propylamino)-2-propyl-2H-pyrazolo [3,4-d]pyrimidin-4-yl]-1,3-dihydro-indol-2-one hydrochloride] yielded a melting point of 271 to 273 °C.
The molecule `COCCn1cc2c(C3C(=O)Nc4ccc(Br)cc43)nc(NCCC3CCCNC3)nc2n1` (stereo not drawn) (as salt: hydrochloride) [Example 228, 5-Bromo-3-[2-(2-methoxy-ethyl)-6-(2-piperidin-3-yl-ethylamino)-2H-pyrazolo[3,4-d]pyrimidin-4-yl]-1,3-dihydro-indol-2-one] registered a melting point of 270 to 273 °C.
Same read-out and setting: next, `CNCCCNc1nc(C2C(=O)Nc3ccc(Br)cc32)c2cn(C)nc2n1` (stereo not drawn) (as salt: hydrochloride) [Example 306, 5-Bromo-3-[2-methyl-6-(3-methylamino-propylamino)-2H-pyrazolo [3,4-d]pyrimidin-4-yl]-1,3-dihydro-indol-2-one]: 271 to 273 °C.
Molecule `O=C1Nc2cc(Cl)ccc2C1c1ncnc2nn(C3CCCCC3)cc12` (stereo not drawn) [Example 51, 6-Chloro-3-(2-cyclohexyl-2H-pyrazolo[3,4-d]pyrimidin-4-yl)-1,3-dihydro-indol-2-one] had a melting point of 299 to 303 °C. In data set [2] (numeric bounds), this molecule gave a concentration for half-maximal inhibition (IC50) greater than 3000 nM.
`CCOCCn1cc2c(C3C(=O)Nc4ccc(Cl)cc43)nc(NCCCNC)nc2n1` (stereo not drawn) (as salt: hydrochloride) [Example 215, 5-Chloro-3-[2-(2-ethoxy-ethyl)-6-(3-methylamino-propylamino)-2H-pyrazolo [3,4-d]pyrimidin-4-yl]-1,3-dihydro-indol-2-one] came in with a melting point of 275 to 277 °C.
The same measure, in the same setting: next, `CNCCCNc1nc(C2C(=O)Nc3ccc(Br)cc32)c2cn(CCOC)nc2n1` (stereo not drawn) (as salt: hydrochloride) [Example 226, 5-Bromo-3-[2-(2-methoxy-ethyl)-6-(3-methylamino-propylamino)-2H-pyrazolo[3,4-d]pyrimdin-4-yl]-1,3-dihydro-indol-2-one]: 232 to 236 °C.
As for `N#Cc1ccc2c(c1)C(c1nc(Cl)nc3nn(C4CCCC4)cc13)C(=O)N2` (stereo not drawn) [Example 113, 3-(6-Chloro-2-cyclopentyl-2H-pyrazolo[3,4-d]pyrimidin-4-yl)-2-oxo-2,3-dihydro-1H-indole-5-carbonitrile], the figures for the IC50 in data set [1] and in data set [2] (class symbols) were less than 300 nM and greater than 10000 nM, respectively.
For `N#Cc1ccc2c(c1)C(c1nc(NN)nc3nn(C4CCCC4)cc13)C(=O)N2` (stereo not drawn) [Example 124, 3-(2-cyclopentyl-6-hydrazino-2H-pyrazolo [3,4-d]pyrimidin-4-yl)-2-oxo-2,3-dihydro-1H-indole-5-carbonitrile] the same measures were less than 300 nM and 300 to 3000 nM.
For `N#Cc1ccc2c(c1)C(c1nc(N3CCN(CCc4ccccn4)CC3)nc3nn(C4CCCC4)cc13)C(=O)N2` (stereo not drawn) [Example 129, 3-{2-cyclopentyl-6-[4-(2-pyridin-2-yl-ethyl)-piperazin-1-yl]-2H-pyrazolo [3,4-d]pyrimidin-4-yl}-2-oxo-2,3-dihydro-1H-indole-5-carbonitrile] the same measures were less than 300 nM and greater than 10000 nM.
For `CN(C)CCCNc1nc(C2C(=O)Nc3ccc(C#N)cc32)c2cn(C3CCCC3)nc2n1` (stereo not drawn) [Example 138, 3-[2-cyclopentyl-6-(3-dimethylamino-propylamino)-2H-pyrazolo[3,4-d]pyrimidin-4-yl]-2-oxo-2,3-dihydro-1H-indole-5-carbonitrile] the same measures were less than 300 nM and 300 to 3000 nM.
On to `CNCCCNc1nc(C2C(=O)Nc3ccc(C(F)(F)F)cc32)c2cn(C3CCCC3)nc2n1` (stereo not drawn) [Example 253, 3-[2-Cyclopentyl-6-(3-methylamino-propylamino)-2H-pyrazolo [3,4-d]pyrimidin-4-yl]-5-trifluoromethyl-1,3-dihydro-indol-2-one hydrochloride salt], for which the IC50 is less than 300 nM in data set [1] and 300 to 3000 nM in data set [2] (class symbols).
For `COc1ccc(Nc2nc3c(c(C4C(=O)Nc5ccc(C#N)cc54)n2)CCC3)cn1` (stereo not drawn) [Example 352, 3-[2-(6-Methoxy-pyridin-3-ylamino)-6,7-dihydro-5H-cyclopentapyrimidin-4-yl]-2-oxo-2,3-dihydro-1H-indole-5-carbonitrile] the same measures were greater than 10000 nM and greater than 10000 nM.
For `N#Cc1ccc2c(c1)C(c1ncnc3nn(C4CCCCC4)cc13)C(=O)N2` (stereo not drawn) [Example 45, 3-(2-Cyclohexyl-2H-pyrazolo [3,4-d]pyrimidin-4-yl)-2-oxo-2,3-dihydro-1H-indole-5-carbonitrile] the same measures were less than 300 nM and less than 300 nM.
For `N#Cc1ccc2c(c1)C(c1nc(NCCCN3CCOCC3)nc3nn(C4CCCC4)cc13)C(=O)N2` (stereo not drawn) [Example 139, 3-[2-cyclopentyl-6-(3-morpholin-4-yl-propylamino)-2H-pyrazolo[3,4-d]pyrimidin-4-yl]-2-oxo-2,3-dihydro-1H-indole-5-carbonitrile] the same measures were less than 300 nM and less than 300 nM.
Consider `CCCn1cc2c(C3C(=O)Nc4ccc(Br)cc43)nc(NC[C@@H]3CCCN3)nc2n1` (stereo partly drawn) [Example 361, 5-Bromo-3-{2-propyl-6-[((S)-1-pyrrolidin-2-ylmethyl)-amino]-2H-pyrazolo[3,4-d]pyrimidin-4-yl}-1,3-dihydro-indol-2-one], for which the results for the IC50 in data set [1] and in data set [2] (numeric bounds) were less than 300 nM and greater than 3000 nM, respectively.
